For one assay, the target named is T1, hAMY3 receptor (Homo sapiens, UniProt O60896+P30988).
T1 sequence (P30988 25-474): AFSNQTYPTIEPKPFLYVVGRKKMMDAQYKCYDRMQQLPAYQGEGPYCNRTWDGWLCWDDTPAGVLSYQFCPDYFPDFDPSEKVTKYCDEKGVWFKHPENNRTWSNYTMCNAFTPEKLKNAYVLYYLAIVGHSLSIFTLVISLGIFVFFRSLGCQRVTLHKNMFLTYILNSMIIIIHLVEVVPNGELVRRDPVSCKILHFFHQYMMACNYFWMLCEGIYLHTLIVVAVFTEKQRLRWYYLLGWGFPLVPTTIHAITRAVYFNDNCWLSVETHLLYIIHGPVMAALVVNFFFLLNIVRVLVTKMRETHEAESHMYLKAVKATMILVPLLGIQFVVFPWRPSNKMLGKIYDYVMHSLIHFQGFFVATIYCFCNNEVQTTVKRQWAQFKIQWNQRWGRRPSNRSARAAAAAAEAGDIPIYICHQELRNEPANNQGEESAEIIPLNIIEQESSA
T1 sequence (O60896 24-148 partner): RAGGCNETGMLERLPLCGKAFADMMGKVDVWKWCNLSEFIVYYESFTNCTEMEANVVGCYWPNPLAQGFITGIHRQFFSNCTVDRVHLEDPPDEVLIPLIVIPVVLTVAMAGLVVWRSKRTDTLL
The experiment in a line: cAMP assay for in vitro receptor activation, hAMY3-R. Type of assay: cell-based. The following applies: cAMP assay, hAMY3 receptor; read-out: hAMY3R EC50. A digest of the protocol: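 Accumulated cAMP was detected by time-resolved FRET one hour after reagent addition. Beforehand, hAMY3-R-overexpressing monoclonal cells (2000/well, DPBS, 0.05% casein, 0.5 mM IBMX) received graded doses of compound for 30 min at room temperature; human amylin served as positive control.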
On the technique in general: Cyclic AMP is a second messenger, typically raised through Gs and lowered through Gi signalling.

The next assay deals with hAM1 receptor (Homo sapiens, UniProt O60895+Q16602). The experiment in a line: cAMP assay for in vitro receptor activation, hAM1-R. Type of assay: cell-based. The following applies: cAMP assay, hAM1 receptor; read-out: hAM1R EC50. A digest of the protocol: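 A subcloned monoclonal line stably expressing hAM1 receptor is thawed and plated at 8000 cells/well. The assay buffer is DPBS with 0.05% casein and 0.5 mM IBMX, and receptor activation is followed by cAMP levels.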

The structures appear in SMILES notation. Numbered stars: 1 amine (or outer) side, 2 acyl side, 3 side chain; on linkers, the order of the positions; unused ones are H or OH. Bridge positions count the residues as written; N and C are the ends. Square brackets hold non-standard residues; d marks the D form. Peptide text beside a SMILES is read from it. * marks the point of attachment. C20 diacid = O=C(O)CCCCCCCCCCCCCCCCCCC(=O)*; γGlu = O=C(O)[C@H](CCC(=O)[*:2])N[*:1]; Hyp = O=C(O)[C@@H]1C[C@@H](O)CN1

Chain of hAM1 receptor (Q16602 23-461): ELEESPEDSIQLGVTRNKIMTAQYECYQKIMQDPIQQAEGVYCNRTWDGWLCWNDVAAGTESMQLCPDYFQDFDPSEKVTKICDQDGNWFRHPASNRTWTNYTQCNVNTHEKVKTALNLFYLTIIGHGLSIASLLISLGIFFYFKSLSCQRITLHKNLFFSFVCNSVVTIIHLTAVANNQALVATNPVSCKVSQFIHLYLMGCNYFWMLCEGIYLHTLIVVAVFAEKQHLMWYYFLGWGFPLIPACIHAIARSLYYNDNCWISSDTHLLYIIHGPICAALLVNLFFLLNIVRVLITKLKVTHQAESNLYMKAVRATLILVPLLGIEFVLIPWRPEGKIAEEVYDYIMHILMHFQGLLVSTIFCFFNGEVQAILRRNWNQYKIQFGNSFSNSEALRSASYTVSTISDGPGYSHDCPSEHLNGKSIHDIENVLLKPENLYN
Chain of hAM1 receptor (O60895 43-175 partner): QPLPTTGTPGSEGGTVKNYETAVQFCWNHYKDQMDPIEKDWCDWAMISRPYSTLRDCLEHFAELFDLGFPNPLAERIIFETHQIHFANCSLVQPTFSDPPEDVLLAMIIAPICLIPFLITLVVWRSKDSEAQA

Broadly, the EC50 is the midpoint of the concentration-response curve. With `CC[C@H](C)[C@H](NC(=O)[C@H](CCC(N)=O)NC(=O)[C@H](Cc1c[nH]cn1)NC(=O)[C@H](C)NC(=O)[C@H](CC(C)C)NC(=O)[C@H](CCCNC(=N)N)NC(=O)[C@H](CCC(N)=O)NC(=O)[C@@H](NC(=O)[C@@H](NC(=O)[C@@H]1CSSC[C@H](NC(=O)[C@H](CCCCN)NC(=O)CC[C@H](NC(=O)CCCCCCCCCCCCCCCCCCC(=O)O)C(=O)O)C(=O)N[C@@H](CC(N)=O)C(=O)N[C@@H]([C@@H](C)O)C(=O)N[C@@H](C)C(=O)N[C@@H]([C@@H](C)O)C(=O)N1)[C@@H](C)O)C(C)C)C(=O)N[C@@H](C)C(=O)N[C@@H](CCC(N)=O)C(=O)N[C@@H](Cc1ccccc1)C(=O)N[C@@H](CO)C(=O)N[C@@H](CC(=O)O)C(=O)N[C@@H](CCCCN)C(=O)N[C@@H](CC(=O)O)C(=O)N[C@@H](CCCCN)C(=O)N[C@@H](CC(=O)O)C(=O)N[C@@H](CC(N)=O)C(=O)N[C@H](C(=O)N[C@@H](C)C(=O)N1CCC[C@H]1C(=O)N1CCC[C@H]1C(=O)N[C@H](C(=O)N[C@@H](CC(N)=O)C(=O)N[C@H](C(=O)NCC(=O)N[C@@H](CO)C(=O)N[C@@H](CC(N)=O)C(=O)NCC(=O)N1C[C@H](O)C[C@H]1C(N)=O)C(C)C)[C@@H](C)O)C(C)C` [compound 79] ({C20 diacid-γGlu}-KCNTATCTVQRLAHQIAQFSDKDKDNVAPPTNVGSNG[Hyp]-NH2; disulfide 2-7), the figures for the EC50 on hAMY3 receptor and at hAM1 receptor were 0.014 nM and above 5000 nM, respectively.

In the case of `CC[C@H](C)[C@H](NC(=O)[C@H](CCC(N)=O)NC(=O)[C@H](Cc1c[nH]cn1)NC(=O)[C@H](C)NC(=O)[C@H](CC(C)C)NC(=O)[C@H](CCCNC(=N)N)NC(=O)[C@@H](NC(=O)[C@@H](NC(=O)[C@@H](NC(=O)[C@@H]1CSSC[C@H](NC(=O)[C@H](CCCCN)NC(=O)CC[C@H](NC(=O)CCCCCCCCCCCCCCCCCCC(=O)O)C(=O)O)C(=O)N[C@@H](CC(N)=O)C(=O)N[C@@H]([C@@H](C)O)C(=O)N[C@@H](C)C(=O)N[C@@H]([C@@H](C)O)C(=O)N1)[C@@H](C)O)C(C)C)C(C)C)C(=O)N[C@@H](Cc1ccc(O)cc1)C(=O)N[C@@H](CCC(N)=O)C(=O)N[C@@H](Cc1ccccc1)C(=O)N[C@H](C(=O)N[C@@H](CC(=O)O)C(=O)N[C@@H](CCCCN)C(=O)N[C@@H](CC(=O)O)C(=O)N[C@@H](CCCCN)C(=O)N[C@@H](CC(=O)O)C(=O)N[C@@H](CC(N)=O)C(=O)N[C@H](C(=O)N[C@@H](C)C(=O)N1CCC[C@H]1C(=O)N1CCC[C@H]1C(=O)N[C@H](C(=O)N[C@@H](CC(N)=O)C(=O)N[C@H](C(=O)NCC(=O)N[C@@H](CO)C(=O)N[C@@H](CC(N)=O)C(=O)NCC(=O)N1C[C@H](O)C[C@H]1C(N)=O)C(C)C)[C@@H](C)O)C(C)C)[C@@H](C)O` [compound 103] ({C20 diacid-γGlu}-KCNTATCTVVRLAHQIYQFTDKDKDNVAPPTNVGSNG[Hyp]-NH2; disulfide 2-7), the EC50 at hAMY3 receptor was 0.018 nM; at hAM1 receptor, above 5000 nM.

For the origin of these results see US12139520B2 (priority 2020, dated 2024).
